In the supplement of paper PMC10307832 one finds relative viability data, which are given here for four cell lines.

Test in all cases: relative viability (nuclei count vs DMSO), 5 days (fraction); higher = more cells survive
Compound in the experiment “Tipifarnib + Trametinib”: Cn1cncc1[C@@](N)(c1ccc(Cl)cc1)c1ccc2c(c1)c(-c1cccc(Cl)c1)cc(=O)n2C [Tipifarnib] + CC(=O)Nc1cccc(-n2c(=O)n(C3CC3)c(=O)c3c(Nc4ccc(I)cc4F)n(C)c(=O)c(C)c32)c1 [Trametinib] (partner 0.02 µM)
In outline:
(§1)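 The day after seeding in 1536-well plates, lung cancer cell lines were treated by pin tool with a single drug, or with a fixed anchor-drug dose together with five library-drug doses (not always all listed) in √10 steps. After 5 days, a combined fix-and-stain solution (final 0.05% Triton X-100, 1% formaldehyde, 1 ug/ml Hoechst) was added. Nuclei counted on 4× images gave relative viability as treated counts over vehicle counts, reported as the median of duplicate plates.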

Compound in the experiment “Tipifarnib + Navitoclax”: Cn1cncc1[C@@](N)(c1ccc(Cl)cc1)c1ccc2c(c1)c(-c1cccc(Cl)c1)cc(=O)n2C [Tipifarnib] + CC1(C)CCC(c2ccc(Cl)cc2)=C(CN2CCN(c3ccc(C(=O)NS(=O)(=O)c4ccc(N[C@H](CCN5CCOCC5)CSc5ccccc5)c(S(=O)(=O)C(F)(F)F)c4)cc3)CC2)C1 [Navitoclax] (partner 0.5 µM)
The procedure, abridged: as §1

Compound in the experiment “Tipifarnib + Phenformin”: Cn1cncc1[C@@](N)(c1ccc(Cl)cc1)c1ccc2c(c1)c(-c1cccc(Cl)c1)cc(=O)n2C [Tipifarnib] + N=C(N)NC(=N)NCCc1ccccc1 [Phenformin] (partner 250 µM)
The procedure, abridged:
as §1

Compound in the experiment “Tipifarnib + Pemetrexed”: Cn1cncc1[C@@](N)(c1ccc(Cl)cc1)c1ccc2c(c1)c(-c1cccc(Cl)c1)cc(=O)n2C [Tipifarnib] + Nc1nc2[nH]cc(CCc3ccc(C(=O)N[C@@H](CCC(=O)O)C(=O)O)cc3)c2c(=O)[nH]1 [Pemetrexed] (partner 0.2 µM)
In outline: as §1

On to SK-MES-1, for which the relative viability is 0.465 in the experiment with Tipifarnib + Trametinib (first compound 0.01 µM); 0.539 in the experiment with Tipifarnib + Trametinib (first compound 0.03162 µM); 0.54 with Tipifarnib + Trametinib (first compound 0.1 µM); 0.459 with Tipifarnib + Trametinib (first compound 0.3162 µM); 0.601 with Tipifarnib + Trametinib (first compound 1 µM); 1.3 in the experiment with Tipifarnib + Navitoclax (first compound 0.01 µM). The relative viability with Tipifarnib + Navitoclax (first compound 0.03162 µM) worked out at 1.11; with Tipifarnib + Navitoclax (first compound 0.1 µM), 0.866; with Tipifarnib + Navitoclax (first compound 0.3162 µM), 0.785; in the experiment with Tipifarnib + Navitoclax (first compound 1 µM), 0.655; in the experiment with Tipifarnib + Phenformin (first compound 0.01 µM) it was 0.659; in the experiment with Tipifarnib + Phenformin (first compound 0.03162 µM), 0.663. In addition, the relative viability in the experiment with Tipifarnib + Phenformin (first compound 0.1 µM) amounted to 0.651; with Tipifarnib + Phenformin (first compound 0.3162 µM), 0.619; with Tipifarnib + Phenformin (first compound 1 µM), 0.57; with Tipifarnib + Pemetrexed (first compound 0.01 µM), 0.975; in the experiment with Tipifarnib + Pemetrexed (first compound 0.03162 µM), 0.919; in the experiment with Tipifarnib + Pemetrexed (first compound 0.1 µM) it was 0.924. Also, the relative viability with Tipifarnib + Pemetrexed (first compound 0.3162 µM) worked out at 0.773; in the experiment with Tipifarnib + Pemetrexed (first compound 1 µM) it was 0.648.

Take A-427: the relative viability in the experiment with Tipifarnib + Trametinib (first compound 0.01 µM) turned out to be 0.872; with Tipifarnib + Trametinib (first compound 0.03162 µM) it was 0.758; with Tipifarnib + Trametinib (first compound 0.1 µM) it was 0.633; with Tipifarnib + Trametinib (first compound 0.3162 µM), 0.654; in the experiment with Tipifarnib + Trametinib (first compound 1 µM), 0.549; with Tipifarnib + Navitoclax (first compound 0.01 µM), 1. The relative viability with Tipifarnib + Navitoclax (first compound 0.03162 µM) is 0.951; with Tipifarnib + Navitoclax (first compound 0.1 µM), 0.955; with Tipifarnib + Navitoclax (first compound 0.3162 µM), 0.874; in the experiment with Tipifarnib + Navitoclax (first compound 1 µM) it was 0.812; with Tipifarnib + Phenformin (first compound 0.01 µM) it was 0.31; with Tipifarnib + Phenformin (first compound 0.03162 µM) it was 0.272. The relative viability in the experiment with Tipifarnib + Phenformin (first compound 0.1 µM) amounted to 0.319; in the experiment with Tipifarnib + Phenformin (first compound 0.3162 µM), 0.227; with Tipifarnib + Phenformin (first compound 1 µM), 0.226; with Tipifarnib + Pemetrexed (first compound 0.01 µM), 0.998; with Tipifarnib + Pemetrexed (first compound 0.03162 µM) it was 1.06; with Tipifarnib + Pemetrexed (first compound 0.1 µM), 0.82. Also, the values for the relative viability with Tipifarnib + Pemetrexed (first compound 0.3162 µM) and with Tipifarnib + Pemetrexed (first compound 1 µM) were 0.979 and 0.739, respectively.

As for NCI-H322M, the relative viability in the experiment with Tipifarnib + Trametinib (first compound 0.01 µM) stood at 0.492; in the experiment with Tipifarnib + Trametinib (first compound 0.03162 µM), 0.565; with Tipifarnib + Trametinib (first compound 0.1 µM), 0.519; in the experiment with Tipifarnib + Trametinib (first compound 0.3162 µM), 0.542; with Tipifarnib + Trametinib (first compound 1 µM), 0.548; in the experiment with Tipifarnib + Navitoclax (first compound 0.01 µM), 1.18. Moreover, the relative viability with Tipifarnib + Navitoclax (first compound 0.03162 µM) is 1.2; with Tipifarnib + Navitoclax (first compound 0.1 µM), 1.31; with Tipifarnib + Navitoclax (first compound 0.3162 µM) it was 0.971; in the experiment with Tipifarnib + Navitoclax (first compound 1 µM), 1.19; in the experiment with Tipifarnib + Phenformin (first compound 0.01 µM), 0.868; with Tipifarnib + Phenformin (first compound 0.03162 µM), 0.749. The relative viability with Tipifarnib + Phenformin (first compound 0.1 µM) amounted to 0.799; with Tipifarnib + Phenformin (first compound 0.3162 µM), 0.682; in the experiment with Tipifarnib + Phenformin (first compound 1 µM), 0.66; with Tipifarnib + Pemetrexed (first compound 0.01 µM) it was 0.605; with Tipifarnib + Pemetrexed (first compound 0.03162 µM), 0.681; with Tipifarnib + Pemetrexed (first compound 0.1 µM), 0.68. Moreover, the relative viability worked out at 0.641 with Tipifarnib + Pemetrexed (first compound 0.3162 µM) and 0.625 with Tipifarnib + Pemetrexed (first compound 1 µM).

In the case of HCC-366, the relative viability with Tipifarnib + Trametinib (first compound 0.01 µM) came out at 0.415; with Tipifarnib + Trametinib (first compound 0.03162 µM) it was 0.371; with Tipifarnib + Trametinib (first compound 0.1 µM), 0.197; with Tipifarnib + Trametinib (first compound 0.3162 µM), 0.147; in the experiment with Tipifarnib + Trametinib (first compound 1 µM), 0.102; with Tipifarnib + Navitoclax (first compound 0.01 µM) it was 1.14. The relative viability in the experiment with Tipifarnib + Navitoclax (first compound 0.03162 µM) came out at 0.762; with Tipifarnib + Navitoclax (first compound 0.1 µM), 0.751; in the experiment with Tipifarnib + Navitoclax (first compound 0.3162 µM), 0.483; with Tipifarnib + Navitoclax (first compound 1 µM), 0.188; with Tipifarnib + Phenformin (first compound 0.01 µM), 0.619; in the experiment with Tipifarnib + Phenformin (first compound 0.03162 µM), 0.569. Also, the relative viability with Tipifarnib + Phenformin (first compound 0.1 µM) stood at 0.387; in the experiment with Tipifarnib + Phenformin (first compound 0.3162 µM) it was 0.313; with Tipifarnib + Phenformin (first compound 1 µM), 0.0592; with Tipifarnib + Pemetrexed (first compound 0.01 µM) it was 0.145; with Tipifarnib + Pemetrexed (first compound 0.03162 µM) it was 0.143; in the experiment with Tipifarnib + Pemetrexed (first compound 0.1 µM) it was 0.167. The relative viability in the experiment with Tipifarnib + Pemetrexed (first compound 0.3162 µM) was 0.127; with Tipifarnib + Pemetrexed (first compound 1 µM) it was 0.0507.
